Organism: Rattus norvegicus
Test: DrugMatrix - Regimen: Daily Repeat
Assay type: toxicity, organism-based, Sprague-Dawley
Parameters: regimen Daily Repeat, gender Male, age 6-8 weeks
Conditions: in vivo, iv, vehicle 100 % SALINE; for ABSOLUTE BASOPHIL / ABSOLUTE EOSINOPHIL / ABSOLUTE LYMPHOCYTE / ABSOLUTE MONOCYTE / ABSOLUTE SEGMENTED NEUTROPHIL / BASOPHIL / EOSINOPHIL / ERYTHROCYTE COUNT / HEMATOCRIT / HEMOGLOBIN / LEUKOCYTE COUNT / LYMPHOCYTE / MEAN CORPUSCULAR HEMOGLOBIN / MEAN CORPUSCULAR HEMOGLOBIN CONCENTRATION / MEAN CORPUSCULAR VOLUME / MONOCYTE / NEUTROPHIL / NUCLEATED RED BLOOD CELLS / PLATELET COUNT: tissue Blood; for ALANINE AMINOTRANSFERASE / ALBUMIN / ALKALINE PHOSPHATASE / ASPARTATE AMINOTRANSFERASE / BLOOD UREA NITROGEN / CARBON DIOXIDE / CHLORIDE / CHOLESTEROL / CREATINE PHOSPHOKINASE / CREATININE / GLUCOSE / LACTATE DEHYDROGENASE / LIPASE / PHOSPHORUS / POTASSIUM / SODIUM / TOTAL BILIRUBIN / TOTAL PROTEIN / URIC ACID: tissue Plasma
[1] = 0 mg/kg, 72 h, dose level Control, time 3 day
[2] = 0 mg/kg, 120 h, dose level Control, time 5 day
[3] = 0.5 mg/kg, 72 h, dose level Low, time 3 day

Q: What does the source list for `CO[C@@]12[C@H](COC(N)=O)C3=C(C(=O)C(C)=C(N)C3=O)N1C[C@@H]1N[C@@H]12` [MITOMYCIN]?
A: ABSOLUTE BASOPHIL [1]: 0 CELLS/uL; ABSOLUTE EOSINOPHIL [1]: 0 CELLS/uL; ABSOLUTE LYMPHOCYTE [1]: 7026.17 CELLS/uL; ABSOLUTE MONOCYTE [1]: 44.33 CELLS/uL; ABSOLUTE SEGMENTED NEUTROPHIL [1]: 379.5 CELLS/uL; BASOPHIL [1]: 0%; EOSINOPHIL [1]: 0%; ERYTHROCYTE COUNT [1]: 5.49 x10E6/uL; HEMATOCRIT [1]: 33.67%; HEMOGLOBIN [1]: 13.17 G/DL; LEUKOCYTE COUNT [1]: 7.45 x10E3/uL; LYMPHOCYTE [1]: 94%; MEAN CORPUSCULAR HEMOGLOBIN [1]: 24.03 pg; MEAN CORPUSCULAR HEMOGLOBIN CONCENTRATION [1]: 39.15 G/DL; MEAN CORPUSCULAR VOLUME [1]: 61.4 fL; MONOCYTE [1]: 0.67%; NEUTROPHIL [1]: 5.33%; NUCLEATED RED BLOOD CELLS [1]: 0.17 /100WBC; PLATELET COUNT [1]: 1062.5 x10E3/uL; ALANINE AMINOTRANSFERASE [1]: 53.17 u/L; ALBUMIN [1]: 4.33 G/DL; ALKALINE PHOSPHATASE [1]: 339.83 u/L; ASPARTATE AMINOTRANSFERASE [1]: 83.33 u/L; BLOOD UREA NITROGEN [1]: 16 mg/dL; CARBON DIOXIDE [1]: 32.5 mmol/L; CHLORIDE [1]: 98 MEQ/L; CHOLESTEROL [1]: 74.67 mg/dL; CREATINE PHOSPHOKINASE [1]: 284 u/L; CREATININE [1]: 0.2 mg/dL; GLUCOSE [1]: 128.67 mg/dL; LACTATE DEHYDROGENASE [1]: 110.33 u/L; LIPASE [1]: 9 u/L; PHOSPHORUS [1]: 11.73 mg/dL; POTASSIUM [1]: 6.34 MEQ/L; SODIUM [1]: 143.12 MEQ/L; TOTAL BILIRUBIN [1]: 0.18 mg/dL; TOTAL PROTEIN [1]: 6.2 G/DL; URIC ACID [1]: 1.28 mg/dL; ABSOLUTE BASOPHIL [2]: 0 CELLS/uL; ABSOLUTE EOSINOPHIL [2]: 26.67 CELLS/uL; ABSOLUTE LYMPHOCYTE [2]: 8334.17 CELLS/uL; ABSOLUTE MONOCYTE [2]: 29.5 CELLS/uL; BASOPHIL [2]: 0%; EOSINOPHIL [2]: 0.33%; ERYTHROCYTE COUNT [2]: 5.44 x10E6/uL; HEMATOCRIT [2]: 33.77%; HEMOGLOBIN [2]: 13.05 G/DL; LEUKOCYTE COUNT [2]: 8.98 x10E3/uL; LYMPHOCYTE [2]: 92.33%; MEAN CORPUSCULAR HEMOGLOBIN [2]: 24 pg; MEAN CORPUSCULAR HEMOGLOBIN CONCENTRATION [2]: 38.67 G/DL; MEAN CORPUSCULAR VOLUME [2]: 62.05 fL; MONOCYTE [2]: 0.33%; NEUTROPHIL [2]: 7%; NUCLEATED RED BLOOD CELLS [2]: 0 /100WBC; PLATELET COUNT [2]: 987 x10E3/uL; ALANINE AMINOTRANSFERASE [2]: 43.5 u/L; ALBUMIN [2]: 4.08 G/DL; ALKALINE PHOSPHATASE [2]: 310.17 u/L; ASPARTATE AMINOTRANSFERASE [2]: 76.67 u/L; BLOOD UREA NITROGEN [2]: 17 mg/dL; CARBON DIOXIDE [2]: 30.67 mmol/L; CHLORIDE [2]: 100.33 MEQ/L; CHOLESTEROL [2]: 69.33 mg/dL; CREATINE PHOSPHOKINASE [2]: 218.67 u/L; CREATININE [2]: 0.22 mg/dL; GLUCOSE [2]: 155.17 mg/dL; LACTATE DEHYDROGENASE [2]: 114.67 u/L; LIPASE [2]: 10.67 u/L; PHOSPHORUS [2]: 11.2 mg/dL; POTASSIUM [2]: 5.5 MEQ/L; SODIUM [2]: 144.12 MEQ/L; TOTAL BILIRUBIN [2]: 0.18 mg/dL; TOTAL PROTEIN [2]: 5.97 G/DL; URIC ACID [2]: 0.88 mg/dL; ABSOLUTE BASOPHIL [3]: 0 CELLS/uL; ABSOLUTE EOSINOPHIL [3]: 0 CELLS/uL; ABSOLUTE LYMPHOCYTE [3]: 8042 CELLS/uL; ABSOLUTE MONOCYTE [3]: 56.33 CELLS/uL; ABSOLUTE SEGMENTED NEUTROPHIL [3]: 601.67 CELLS/uL; BASOPHIL [3]: 0%; EOSINOPHIL [3]: 0%; ERYTHROCYTE COUNT [3]: 5.65 x10E6/uL; HEMATOCRIT [3]: 34.47%; HEMOGLOBIN [3]: 13.63 G/DL; LEUKOCYTE COUNT [3]: 8.7 x10E3/uL; LYMPHOCYTE [3]: 92.67%; MEAN CORPUSCULAR HEMOGLOBIN [3]: 24.13 pg; MEAN CORPUSCULAR HEMOGLOBIN CONCENTRATION [3]: 39.57 G/DL; MEAN CORPUSCULAR VOLUME [3]: 61.07 fL; MONOCYTE [3]: 0.67%; NEUTROPHIL [3]: 6.67%; NUCLEATED RED BLOOD CELLS [3]: 0 /100WBC; PLATELET COUNT [3]: 888.67 x10E3/uL; ALANINE AMINOTRANSFERASE [3]: 51.67 u/L; ALBUMIN [3]: 4.27 G/DL; ALKALINE PHOSPHATASE [3]: 324.67 u/L; ASPARTATE AMINOTRANSFERASE [3]: 87 u/L; BLOOD UREA NITROGEN [3]: 14.33 mg/dL; CARBON DIOXIDE [3]: 31 mmol/L; CHLORIDE [3]: 99 MEQ/L; CHOLESTEROL [3]: 72 mg/dL; CREATINE PHOSPHOKINASE [3]: 285 u/L; CREATININE [3]: 0.26 mg/dL; GLUCOSE [3]: 136.67 mg/dL; LACTATE DEHYDROGENASE [3]: 100.67 u/L; LIPASE [3]: 11.67 u/L; PHOSPHORUS [3]: 10.87 mg/dL; POTASSIUM [3]: 5.62 MEQ/L; SODIUM [3]: 144.1 MEQ/L; TOTAL BILIRUBIN [3]: 0.1 mg/dL; TOTAL PROTEIN [3]: 5.9 G/DL; URIC ACID [3]: 0.63 mg/dL

— ChEMBL document CHEMBL3885881, “DrugMatrix”
